Earlier results, collected in publication PMC4807944 (International Journal of Nanomedicine, 2016).

Aqueous solubility: 1 to 2 µg/mL
Compound: C=CC[C@@H]1/C=C(\C)C[C@H](C)C[C@H](OC)[C@H]2O[C@@](O)(C(=O)C(=O)N3CCCC[C@H]3C(=O)O[C@H](/C(C)=C/[C@@H]3CC[C@@H](O)[C@H](OC)C3)[C@H](C)[C@@H](O)CC1=O)[C@H](C)C[C@@H]2OC [FK506, Tacrolimus]
